{"source": "ChEMBL document CHEMBL3739422", "about": "“Hydroxytyrosol-Derived Compounds: A Basis for the Creation of New Pharmacological Agents for Cancer Prevention and Therapy” (J Med Chem, 2015)", "key": {"[1]": {"test_system": "HeLa", "experiment": "Antioxidant activity in human HeLa cells assessed as reduction in iron-reactive oxidative stress preincubated for 4 hrs prior to FeSO4 addition measured after 1 hr by TBARS assay", "format": "functional", "set-up": "scale not given: the % may be the effect or the level left"}, "[2]": {"test_system": "Platelet", "experiment": "Inhibition of collagen-induced platelet aggregation in human whole blood preincubated for 10 mins prior to collagen addition measured after 10 mins by aggregometric analysis", "format": "functional, tissue-based"}, "[3]": {"experiment": "Cytotoxicity against human Caco2/TC7 cells assessed as growth inhibition at 5 uM after 24 hrs by WST-1 assay", "format": "functional", "settings": "Caco-2, 24 h, read-out: GI"}, "[4]": {"experiment": "Cytotoxicity against human Caco2/TC7 cells assessed as growth inhibition after 24 hrs by WST-1 assay", "format": "functional, cell-based", "settings": "Caco-2, 24 h"}, "[5]": {"test_system": "Rattus norvegicus", "experiment": "Inhibition of collagen-induced platelet aggregation in po dosed Wistar rat administered for 7 days measured after 1 hr post last dose by aggregometric analysis", "format": "functional", "settings": "read-out: ID50 (the source's name)"}, "[6]": {"test_system": "Rattus norvegicus", "experiment": "Inhibition of A23187-induced TXA2 synthesis in Wistar rat at 1 to 100 mg/kg, po qd administered for 7 days measured after 1 hr post last dose by enzyme immunoassay", "format": "functional"}, "[7]": {"test_system": "Rattus norvegicus", "experiment": "Induction of NO production in Wistar rat at 1 to 100 mg/kg, po qd administered for 7 days measured after 1 hr post last dose by enzyme immuno assay", "format": "functional"}, "[8]": {"test_system": "A549", "experiment": "Cytotoxicity against human A549 cells assessed as cell viability after 48 hrs by MTT assay", "format": "functional, cell-based", "settings": "A549, 48 h"}, "[9]": {"test_system": "MRC5", "experiment": "Cytotoxicity against human MRC5 cells assessed as cell viability after 48 hrs by MTT assay", "format": "cell-based", "settings": "MRC5, 48 h"}, "[10]": {"experiment": "Selectivity ratio of IC50 for human MRC5 cells to IC50 for human A549 cells", "format": "ADME, cell-based", "settings": "MRC5 cells versus A549 cells, read-out: Ratio IC50"}, "[11]": {"test_system": "THP-1", "experiment": "Inhibition of LPS-induced TNFalpha production in human THP1 cells at 0.5 uM after 3 hrs by microplate reader analysis", "format": "functional", "settings": "THP-1, 3 h"}, "[12]": {"test_system": "THP-1", "experiment": "Inhibition of LPS-induced TNFalpha production in human THP1 cells at 10 uM after 3 hrs by microplate reader analysis", "format": "functional", "settings": "THP-1, 3 h"}, "[13]": {"test_system": "THP-1", "experiment": "Inhibition of LPS-induced TNFalpha production in human THP1 cells at 100 uM after 3 hrs by microplate reader analysis", "format": "functional", "settings": "THP-1, 3 h"}, "[14]": {"test_system": "Rattus norvegicus", "experiment": "Inhibition of collagen-induced platelet aggregation in Wistar rat at 20 mg/kg, po qd administered for 7 days measured after 1 hr post last dose by aggregometric analysis", "format": "functional"}, "[15]": {"test_system": "Rattus norvegicus", "experiment": "Inhibition of A23187-induced TXA2 synthesis in Wistar rat at 20 mg/kg, po qd administered for 7 days measured after 1 hr post last dose by enzyme immuno assay", "format": "functional"}, "[16]": {"test_system": "Rattus norvegicus", "experiment": "Inhibition of plasma lipid peroxide in Wistar rat at 20 mg/kg, po qd administered for 7 days measured after 1 hr post last dose by spectrophotometric analysis", "format": "functional"}, "[17]": {"test_system": "Rattus norvegicus", "experiment": "Induction of NO production in Wistar rat at 1 to 10 mg/kg, po qd administered for 7 days measured after 1 hr post last dose by enzyme immuno assay", "format": "functional"}, "[18]": {"test_system": "Platelet", "experiment": "Inhibition of collagen-induced platelet aggregation in human platelet rich plasma preincubated for 10 mins", "format": "functional, cell-free"}, "[19]": {"test_system": "Platelet", "experiment": "Inhibition of ADP-induced platelet aggregation in human platelet rich plasma preincubated for 10 mins", "format": "functional, cell-free"}}}
{"smiles": "CCCCCCCC/C=C\\CCCCCCCC(=O)OCCc1ccc(O)c(O)c1", "values": [{"measurement": "Activity", "setting": "[1]", "value": 38, "unit": "%"}]}
{"smiles": "CC(=O)OCCc1ccc(O)c(O)c1", "values": [{"measurement": "IC50", "setting": "[2]", "value": 10, "unit": "µM"}, {"measurement": "inhibition of growth at 5 µM", "setting": "[3]", "value": 20, "unit": "%"}, {"measurement": "Activity", "setting": "[1]", "value": 36, "unit": "%"}, {"measurement": "IC50", "setting": "[4]", "value": 32, "unit": "µM"}, {"measurement": "ED50", "setting": "[5]", "value": 16.1, "unit": "mg/kg/day"}, {"measurement": "inhibition (INH)", "setting": "[6]", "value": 37, "unit": "%"}, {"measurement": "inhibition (INH)", "setting": "[7]", "value": 66, "unit": "%"}]}
{"smiles": "CCCCCCCCCCCCOCCc1ccc(O)c(O)c1", "values": [{"measurement": "IC50", "setting": "[8]", "value": 20, "unit": "µM"}, {"measurement": "IC50", "setting": "[9]", "value": 49, "unit": "µM"}, {"measurement": "selectivity ratio", "setting": "[10]", "value": 2.46}]}
{"smiles": "Oc1cc2c(cc1O)C(c1ccccc1)OCC2", "note": "(stereo not given)", "values": [{"measurement": "inhibition at 0.5 µM", "setting": "[11]", "value": 30, "unit": "%"}, {"measurement": "inhibition at 10 µM", "setting": "[12]", "value": 60, "unit": "%"}, {"measurement": "inhibition at 100 µM", "setting": "[13]", "value": 80, "unit": "%"}]}
{"smiles": "CCCCCCOCCc1ccc(O)c(O)c1", "values": [{"measurement": "IC50", "setting": "[2]", "value": 0.1, "unit": "µM"}, {"measurement": "inhibition in vivo at 20 mg/kg", "setting": "[14]", "value": 58.7, "unit": "%"}, {"measurement": "inhibition in vivo at 20 mg/kg", "setting": "[15]", "value": 58.7, "unit": "%"}, {"measurement": "inhibition in vivo at 20 mg/kg", "setting": "[16]", "value": 84.7, "unit": "%"}]}
{"smiles": "CC(=O)Oc1ccccc1C(=O)O", "note": "[ASPIRIN]", "values": [{"measurement": "ED50", "setting": "[5]", "value": 2.42, "unit": "mg/kg/day"}, {"measurement": "inhibition (INH)", "setting": "[17]", "value": 64, "unit": "%"}]}
{"smiles": "OCCc1ccc(O)c(O)c1", "note": "[HYDROXYTYROSOL]", "values": [{"measurement": "IC50", "setting": "[18]", "value": 67, "unit": "µM"}, {"measurement": "IC50", "setting": "[19]", "value": 27, "unit": "µM"}, {"measurement": "ED50", "setting": "[5]", "value": 48.2, "unit": "mg/kg/day"}, {"measurement": "inhibition (INH)", "setting": "[6]", "value": 30, "unit": "%"}, {"measurement": "inhibition (INH)", "setting": "[7]", "value": 34.2, "unit": "%"}]}
